Assay [1] has as its target T1, BRD4(1) bromodomain (Homo sapiens, UniProt O60885).
T1 construct: final concentrations of His-BRD4(1) at 20 nM
The assay is described as follows: AlphaScreen in vitro binding assay with BRD4. As to conditions: isolated BRD4 bromodomain, means of at least two determinations. On the procedure: (§1) To determine the binding selectivity of compounds provided, AlphaScreen in vitro binding assays were performed with either CBP or BRD4.
Assays were performed with minor modifications from the manufacturer's protocol (Perkin Elmer, USA). All reagents were diluted in AlphaScreen™ buffer (50 mM HEPES, 150 mM NaCl, 0.01% v/v Tween-20, 0.1% w/v BSA, pH 7.4). After addition of Alpha beads to master solutions, all subsequent steps were performed under low light conditions. […] Plates were spun down at 1000 rpm. A 10-point 1: √{square root over (sqrt(10))} serial dilution of compounds in DMSO was prepared at 200× the final concentration. 100 nL of compound from these stock plates were added by pin transfer using a Janus Workstation (PerkinElmer). A 2× solution of streptavidin-coated donor beads with a final concentration of 10 μg/ml was added in a 10 μL volume. The plates were spun down again at 1000 rpm and sealed with foil to prevent light exposure and evaporation. The plates were then incubated at room temperature for 1 hour and read on an Envision 2104 (PerkinElmer) using the manufacturer's protocol. IC50 values were calculated using a 4-parameter logistic curve in Prism 6 (GraphPad Software, USA) after normalization to DMSO-treated negative control wells.

The target of assay [2] is T2, CBP bromodomain (Homo sapiens, UniProt Q92793).
T2 construct: docked complex of Compound 21 with CBP bromodomain
The experiment in a line: AlphaScreen in vitro binding assay with CBP. The note with it: for IC50: AlphaScreen, isolated CBP bromodomain, means of at least two determinations; for Selectivity Value [BRD4(1) IC50 (μM)/CBP IC50 (μM)]: ratio BRD4(1) IC50 / CBP IC50. The method, then: as §1
Assays were performed with minor modifications from the manufacturer's protocol (Perkin Elmer, USA). All reagents were diluted in AlphaScreen™ buffer (50 mM HEPES, 150 mM NaCl, 0.01% v/v Tween-20, 0.1% w/v BSA, pH 7.4). After addition of Alpha beads to master solutions, all subsequent steps were performed under low light conditions. A 2× solution of components with final concentrations of His-BRD4(1) at 20 nM or His-CBP at 50 nM, Ni-coated Acceptor bead at 10 μg/ml, and biotinylated-JQ1 at 10 nM or biotinylated peptide at 100 nM was added in 10 μL to 384-well plates (AlphaPlate-384, PerkinElmer) using an EL406 liquid handler (Biotek, USA). Plates were spun down at 1000 rpm. A 10-point 1: √{square root over (sqrt(10))} serial dilution of compounds in DMSO was prepared at 200× the final concentration. 100 nL of compound from these stock plates were added by pin transfer using a Janus Workstation (PerkinElmer). A 2× solution of streptavidin-coated donor beads with a final concentration of 10 μg/ml was added in a 10 μL volume. The plates were spun down again at 1000 rpm and sealed with foil to prevent light exposure and evaporation. The plates were then incubated at room temperature for 1 hour and read on an Envision 2104 (PerkinElmer) using the manufacturer's protocol. IC50 values were calculated using a 4-parameter logistic curve in Prism 6 (GraphPad Software, USA) after normalization to DMSO-treated negative control wells.
(In Alpha technology, singlet oxygen from a donor bead excites a nearby acceptor bead.)

T2 sequence (Q92793 1085-1192 limits assumed): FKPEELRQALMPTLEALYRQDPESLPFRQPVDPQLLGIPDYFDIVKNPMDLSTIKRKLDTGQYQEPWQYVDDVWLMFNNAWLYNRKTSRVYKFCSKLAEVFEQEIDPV

A word on the IC50: it is the midpoint of a concentration-inhibition curve. Low readings indicate greater potency in that assay, high ones weaker potency in that assay. With `Cc1noc(C)c1-c1ccn2c(NC(C)(C)CC(C)(C)C)c(CCc3ccccc3)nc2c1` [Compound 13, 7-(3,5-dimethylisoxazol-4-yl)-2-phenethyl-N-(2,4,4-trimethylpentan-2-yl)imidazo[1,2-a]pyridin-3-amine], the IC50 in assay [1] was 2.77 µM. In addition, in assay [2], the IC50 was determined as 1.88 µM and the “Selectivity Value [BRD4(1) IC50 (μM)/CBP IC50 (μM)]” value (from here on “Selectivity Value”) came out at 1.
In the case of `Cc1noc(C)c1-c1ccn2c(NC3CCCCC3)c(CCc3ccccc3)nc2c1` [Compound 5, N-cyclohexyl-7-(3,5-dimethylisoxazol-4-yl)-2-phenethylimidazo[1,2-a]pyridin-3-amine], the IC50 in assay [1] came to 7.43 µM; in assay [2], 0.718 µM. Also, the “Selectivity Value” value in assay [2] worked out at 10.
On the same counts, the results for `COc1ccc(CCc2nc3cc(-c4c(C)noc4C)ccn3c2NCCN2CCOCC2)cc1` [Compound 17] are 3.42 µM, 0.464 µM and 7.
As to `COc1ccc(CCc2nc3cc(-c4c(C)noc4C)ccn3c2NCc2ccccc2)cc1` [Compound 24], the IC50 in assay [1] came to 8.47 µM. For the same compound, in assay [2], the IC50 was determined as 1.92 µM and the “Selectivity Value” value is recorded as 4.
On the same counts, the results for `COc1ccc(CCc2nc3cc(-c4c(C)noc4C)ccn3c2NC(C)C)cc1OC` [Compound 34] are 22.6 µM, 3.52 µM and 6.
With `COc1ccc(CCc2nc3cc(-c4c(C)noc4C)ccn3c2NC23CC4CC(CC(C4)C2)C3)cc1` [Compound 16, N-((3s,5s,7s)-adamantan-1-yl)-7-(3,5-dimethylisoxazol-4-yl)-2-(4-methoxyphenethyl)imidazo[1,2-a]pyridine-3-amine], the IC50 in assay [1] came out at 7.11 µM. Besides, in assay [2], the IC50 was found to be 0.923 µM and the “Selectivity Value” value is 8.
On the same counts, the results for `COc1ccc(CCc2nc3cc(-c4c(C)noc4C)ccn3c2NC2CCCCC2)cc1` [Compound 18, N-cyclohexyl-7-(3,5-dimethylisoxazol-4-yl)-2-(4-methoxyphenethyl)imidazo[1,2-a]pyridin-3-amine] are 6.59 µM, 0.159 µM and 41.

These data come from patent publication US11098043B2, “Certain imidazopyridines as cyclic AMP response element binding (CREB) binding protein (CBP) inhibitors and uses thereof” (University of Massachusetts, priority 2017, dated 2021).
